Some test systems named below: A498; ACHN; EKVX; HCT-116; HT-29; IGROV-1; K562; MDA-MB-435; NCI-H23; OVCAR-4; OVCAR-8; RPMI-8226; RXF 393; SF-539; SK-MEL-28; SK-OV-3; SNB-19; SW-620; U-251; UACC-257.
Holding throughout (test): NCI anticancer screen, dose series, 48 h

Results on ten molecules are retold here after ChEMBL document CHEMBL1201862, “PubChem BioAssay data set” (2004).

Structures are written as SMILES.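 48-hour exposure; five concentrations; linearly interpolated endpoints. Abbreviation: GI50, concentration required for 50% inhibition of growth.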 The source made the active and inactive calls. Rule as the data show it: active = GI50 up to about 1.1 µM and inactive = higher.

For `Cc1ccc(S(=O)(=O)Oc2cc(S(=O)(=O)O)cc3cc(S(=O)(=O)O)cc(N)c23)cc1`, the GI50 with A498, in the assay with ACHN, with EKVX, with HCT-116, in the assay with HT-29 and in the assay on IGROV-1 was > 100 µM (inactive) throughout. Also, the GI50 in the assay with K562, in the assay with MDA-MB-435, in the assay on NCI-H23, in the assay on OVCAR-4, in the assay on OVCAR-8 and with RPMI-8226 was > 100 µM (inactive) throughout. Moreover, the GI50 in the assay with RXF 393, with SF-539, with SK-MEL-28, in the assay with SK-OV-3, with SNB-19 and with SW-620 was > 100 µM (inactive) each time. Further, the GI50 with U-251 and in the assay with UACC-257 was > 100 µM (inactive) throughout.

Regarding `CC(/C=N/N(C)C1=NCCCN1)=N/N(C)C1=NCCCN1`, the GI50 in the assay with A498, in the assay with ACHN, with EKVX, in the assay with HCT-116, in the assay on HT-29 and with IGROV-1 was > 100 µM (inactive) in each case. Also, the GI50 in the assay on K562, in the assay on MDA-MB-435, in the assay with NCI-H23, in the assay on OVCAR-4, with OVCAR-8 and in the assay with RPMI-8226 was > 100 µM (inactive) in each case. Also, the GI50 in the assay with RXF 393, in the assay on SF-539, in the assay on SK-MEL-28, with SK-OV-3, in the assay on SNB-19 and in the assay with SW-620 was > 100 µM (inactive) in each case. The GI50 in the assay on U-251 and in the assay on UACC-257 was > 100 µM (inactive) each time.

As to `CC1=NN(c2ccccc2)C(=O)C1/N=N/c1ccc([As](=O)(O)O)c(O)c1` (stereo not given), the GI50 with A498, in the assay on ACHN, with EKVX, in the assay with HCT-116, in the assay on HT-29 and with IGROV-1 was > 100 µM (inactive) throughout. Moreover, the GI50 is > 100 µM (inactive) in the assay with K562; > 100 µM (inactive) with MDA-MB-435; > 100 µM (inactive) in the assay on NCI-H23; > 100 µM (inactive) with OVCAR-4; > 100 µM (inactive) in the assay on OVCAR-8; 57 µM (inactive) in the assay on RPMI-8226. The GI50 in the assay on RXF 393, with SF-539, with SK-MEL-28, in the assay with SK-OV-3, in the assay on SNB-19 and in the assay on SW-620 was > 100 µM (inactive) throughout. The GI50 in the assay with U-251 and in the assay with UACC-257 was > 100 µM (inactive) throughout.

Consider `NCc1ccc(O)c(O)c1O`, for which the GI50 with A498 was 75.3 µM (inactive); in the assay on ACHN, 23.4 µM (inactive); in the assay on EKVX, 39.7 µM (inactive); in the assay with HCT-116, 16.7 µM (inactive); in the assay on HT-29, 16.9 µM (inactive); with IGROV-1 it was 38.9 µM (inactive). Also, the GI50 was 23.6 µM (inactive) in the assay on K562; 18 µM (inactive) in the assay on MDA-MB-435; 28.1 µM (inactive) in the assay on NCI-H23; 26.1 µM (inactive) in the assay with OVCAR-4; 23.9 µM (inactive) in the assay with OVCAR-8; 26.9 µM (inactive) in the assay on RPMI-8226. Further, the GI50 in the assay with RXF 393 was 40.7 µM (inactive); in the assay with SF-539, 27.1 µM (inactive); in the assay with SK-MEL-28, 62.5 µM (inactive); in the assay with SK-OV-3, > 78 µM (inactive); in the assay on SNB-19, 54.5 µM (inactive); in the assay with SW-620, 20 µM (inactive). For the same molecule, the GI50 with U-251 was 24.9 µM (inactive); with UACC-257 it was 30.8 µM (inactive).

On to `CCOC1SC(SC)=NN1C(=O)C(OC(C)=O)C(OC(C)=O)C(OC(C)=O)C(OC(C)=O)C(=O)N1N=C(SC)SC1OCC` (stereo not given), for which the GI50 was > 100 µM (inactive) with A498; > 100 µM (inactive) in the assay on ACHN; > 100 µM (inactive) in the assay with EKVX; 88.5 µM (inactive) in the assay on HCT-116; > 100 µM (inactive) in the assay with HT-29; > 100 µM (inactive) in the assay with IGROV-1. Further, the GI50 in the assay on K562 was > 100 µM (inactive); with MDA-MB-435, > 100 µM (inactive); with NCI-H23, > 100 µM (inactive); in the assay on OVCAR-4, 78.5 µM (inactive); in the assay on OVCAR-8 it was > 100 µM (inactive); in the assay on RPMI-8226, > 100 µM (inactive). In addition, the GI50 was 75.2 µM (inactive) in the assay on RXF 393; 69.7 µM (inactive) with SF-539; > 100 µM (inactive) in the assay with SK-MEL-28; > 100 µM (inactive) in the assay with SK-OV-3; > 100 µM (inactive) in the assay on SNB-19; > 100 µM (inactive) in the assay with SW-620. Also, the GI50 was 86.3 µM (inactive) in the assay on U-251 and > 100 µM (inactive) in the assay on UACC-257.

For the molecule `O=C(Cc1ccc(OCc2cccc(Cl)c2)cc1)NO`, the GI50 in the assay with A498 was 2.7 µM (inactive); in the assay with ACHN, 25.2 µM (inactive); in the assay on EKVX, 25.3 µM (inactive); with HCT-116, 24.5 µM (inactive); with HT-29, 27 µM (inactive); in the assay on IGROV-1, 17.5 µM (inactive). The GI50 with K562 was 16.1 µM (inactive); in the assay with MDA-MB-435 it was 41.8 µM (inactive); with NCI-H23 it was 34 µM (inactive); with OVCAR-4, 15.3 µM (inactive); in the assay with OVCAR-8, 11.7 µM (inactive); in the assay on RPMI-8226 it was 3.77 µM (inactive). The GI50 was 26 µM (inactive) in the assay with RXF 393; 29.6 µM (inactive) in the assay with SF-539; 32.9 µM (inactive) with SK-MEL-28; 29.8 µM (inactive) in the assay on SK-OV-3; 37.2 µM (inactive) in the assay with SNB-19; 31.3 µM (inactive) with SW-620. The GI50 in the assay with U-251 is 28.9 µM (inactive); in the assay with UACC-257, 53.5 µM (inactive).

For `C/C(=N\N=C(/S)N1CC2CCC(CC2)C1)c1cccc[n+]1[O-]`, the GI50 is 18.3 µM (inactive) in the assay with A498; 5 µM (inactive) in the assay with ACHN; 7.45 µM (inactive) in the assay with EKVX; 3.61 µM (inactive) in the assay with HCT-116; 1.84 µM (inactive) in the assay with HT-29; 17.9 µM (inactive) with IGROV-1. In addition, the GI50 in the assay with K562 is 0.228 µM (active); in the assay on MDA-MB-435, 28.5 µM (inactive); in the assay on NCI-H23, 16.6 µM (inactive); with OVCAR-4 it was 2.46 µM (inactive); with OVCAR-8 it was 6.44 µM (inactive); in the assay with RPMI-8226 it was 0.381 µM (active). Also, the GI50 is 13.7 µM (inactive) in the assay on RXF 393; 5.85 µM (inactive) in the assay with SF-539; 5.2 µM (inactive) with SK-MEL-28; 35.8 µM (inactive) in the assay with SK-OV-3; 9.08 µM (inactive) in the assay with SNB-19; 4.35 µM (inactive) in the assay with SW-620. The GI50 in the assay on U-251 is 6.28 µM (inactive); in the assay with UACC-257 it was 7.59 µM (inactive).

On to `C/C(=N\NC(=S)N1CCN(c2ccccn2)CC1)c1ccccn1`, for which the GI50 was 0.853 µM (active) with A498; < 0.0239 µM (active) in the assay on ACHN; < 0.0154 µM (active) with EKVX; 0.00158 µM (active) with HCT-116; 0.0745 µM (active) in the assay with HT-29; 0.00151 µM (active) with IGROV-1. Besides, the GI50 was 0.00296 µM (active) with K562; 0.111 µM (active) in the assay with MDA-MB-435; 0.022 µM (active) in the assay on NCI-H23; 0.331 µM (active) with OVCAR-4; 0.00281 µM (active) in the assay with OVCAR-8; 0.00681 µM (active) in the assay on RPMI-8226. In addition, the GI50 was 0.4 µM (active) with RXF 393; 0.397 µM (active) in the assay on SF-539; 0.208 µM (active) with SK-MEL-28; 0.0593 µM (active) in the assay on SK-OV-3; 0.27 µM (active) in the assay on SNB-19; 0.017 µM (active) in the assay on SW-620. Moreover, the GI50 with U-251 was 0.00356 µM (active); in the assay with UACC-257, 0.00135 µM (active).

For the molecule `CC(=O)OCC12C(OC(C)=O)C(=O)C3C(OC(C)=O)C14OC3(C)COC(=O)c1cccnc1C(C)C(C)C(=O)OC(C(OC(C)=O)C2OC(C)=O)C4(C)O` (stereo not given), the GI50 in the assay on A498, in the assay with ACHN, with EKVX, in the assay with HCT-116, with HT-29 and in the assay with IGROV-1 was > 100 µM (inactive) in each case. Also, the GI50 in the assay on K562, with MDA-MB-435, with NCI-H23, in the assay on OVCAR-4, with OVCAR-8 and in the assay with RPMI-8226 was > 100 µM (inactive) throughout. Moreover, the GI50 with RXF 393, in the assay with SF-539, with SK-MEL-28, in the assay with SK-OV-3, in the assay on SNB-19 and with SW-620 was > 100 µM (inactive) each time. The GI50 in the assay on U-251 and with UACC-257 was > 100 µM (inactive) in each case.

As for `CCCCCCCCCCCCCCC[C@@H](O)C[N+](C)(C)CCO`, the GI50 was 19.1 µM (inactive) in the assay with A498; 3.95 µM (inactive) with ACHN; 8.77 µM (inactive) with EKVX; 3.99 µM (inactive) with HCT-116; 1.2 µM (inactive) with HT-29; 0.434 µM (active) in the assay on IGROV-1. The GI50 with K562 was 2.41 µM (inactive); in the assay on MDA-MB-435 it was 4.84 µM (inactive); with NCI-H23, 2.06 µM (inactive); in the assay on OVCAR-4, 4.2 µM (inactive); in the assay on OVCAR-8, 5.13 µM (inactive); in the assay with RPMI-8226, 2.21 µM (inactive). In addition, the GI50 in the assay with RXF 393 was 1.11 µM (active); in the assay with SF-539, 2.39 µM (inactive); in the assay on SK-MEL-28, 19.3 µM (inactive); with SK-OV-3, 7.76 µM (inactive); with SNB-19, 1.63 µM (inactive); in the assay with SW-620, 4.14 µM (inactive). In addition, the figures for the GI50 in the assay on U-251 and in the assay with UACC-257 were 1.73 µM (inactive) and 10.2 µM (inactive), respectively.
